Assays:
Assay type in all cases: functional
[1] = test system: Parvimonas micra; experiment: Antimicrobial activity against Parvimonas micra by agar dilution method in presence of 5% laked sheep blood
[2] = test system: Bacteroides caccae; experiment: Antimicrobial activity against Bacteroides caccae by agar dilution method in presence of 5% laked sheep blood
[3] = test system: Clostridium septicum; experiment: Antimicrobial activity against Clostridium septicum ATCC 12464 by agar dilution method in presence of 5% laked sheep blood
[4] = test system: Schaalia odontolytica; experiment: Antimicrobial activity against Actinomyces odontolyticus GAI 91002 by agar dilution method in presence of 5% laked sheep blood
[5] = test system: Enterocloster clostridioformis; experiment: Antimicrobial activity against Clostridium clostridioforme NCTC 11224 by agar dilution method in presence of 5% laked sheep blood
[6] = test system: Eggerthella lenta; experiment: Antimicrobial activity against Eggerthella lenta ATCC 25559 by agar dilution method in presence of 5% laked sheep blood
[7] = test system: Anaerococcus prevotii; experiment: Antimicrobial activity against Anaerococcus prevotii ATCC 9321 by agar dilution method in presence of 5% laked sheep blood
[8] = test system: Streptococcus intermedius; experiment: Antimicrobial activity against Streptococcus intermedius ATCC 27335 by agar dilution method in presence of 5% laked sheep blood
[9] = test system: Fusobacterium sp.; experiment: Antimicrobial activity against Fusobacterium sp. by agar dilution method in presence of 5% laked sheep blood
[10] = test system: Peptostreptococcus anaerobius; experiment: Antimicrobial activity against Peptostreptococcus anaerobius by agar dilution method in presence of 5% laked sheep blood
[11] = test system: Bacteroides uniformis; experiment: Antimicrobial activity against Bacteroides uniformis by agar dilution method in presence of 5% laked sheep blood
[12] = test system: Lacticaseibacillus casei; experiment: Antimicrobial activity against Lactobacillus casei subsp. casei JCM 1134 by agar dilution method in presence of 5% laked sheep blood
[13] = test system: Fusobacterium varium; experiment: Antimicrobial activity against Fusobacterium varium by agar dilution method in presence of 5% laked sheep blood
[14] = test system: Bacteroides fragilis; experiment: Antimicrobial activity against carbapenemase-producing Bacteroides fragilis GAI 30144 by agar dilution method in presence of 5% laked sheep blood
[15] = test system: Fusobacterium nucleatum; experiment: Antimicrobial activity against Fusobacterium nucleatum by agar dilution method in presence of 5% laked sheep blood
[16] = test system: Bilophila wadsworthia; experiment: Antimicrobial activity against Bilophila wadsworthia WAL 7959 by agar dilution method in presence of 5% laked sheep blood
[17] = test system: Fusobacterium mortiferum; experiment: Antimicrobial activity against Fusobacterium mortiferum by agar dilution method in presence of 5% laked sheep blood
[18] = test system: Staphylococcus saccharolyticus; experiment: Antimicrobial activity against Staphylococcus saccharolyticus ATCC 14953 by agar dilution method in presence of 5% laked sheep blood
[19] = test system: Hoylesella oralis; experiment: Antimicrobial activity against Prevotella oralis ATCC 33269 by agar dilution method in presence of 5% laked sheep blood
[20] = test system: Fusobacterium necrophorum; experiment: Antimicrobial activity against Fusobacterium necrophorum by agar dilution method in presence of 5% laked sheep blood
[21] = test system: Desulfovibrio desulfuricans; experiment: Antimicrobial activity against Desulfovibrio desulfuricans by agar dilution method in presence of 5% laked sheep blood
[22] = test system: Prevotella intermedia; experiment: Antimicrobial activity against Prevotella intermedia by agar dilution method in presence of 5% laked sheep blood
[23] = test system: Lactobacillus acidophilus; experiment: Antimicrobial activity against Lactobacillus acidophilus JCM 1132 by agar dilution method in presence of 5% laked sheep blood
[24] = test system: Bacteroides stercoris; experiment: Antimicrobial activity against Bacteroides stercoris by agar dilution method in presence of 5% laked sheep blood
[25] = test system: Campylobacter ureolyticus; experiment: Antimicrobial activity against Bacteroides ureolyticus NCTC 10941 by agar dilution method in presence of 5% laked sheep blood
[26] = test system: Prevotella melaninogenica; experiment: Antimicrobial activity against Prevotella melaninogenica JCM 6325 by agar dilution method in presence of 5% laked sheep blood; conditions: ATCC 25845
[27] = test system: Clostridium perfringens; experiment: Antimicrobial activity against Clostridium perfringens by agar dilution method in presence of 5% laked sheep blood
[28] = test system: Eubacterium limosum; experiment: Antimicrobial activity against Eubacterium limosum by agar dilution method in presence of 5% laked sheep blood
[29] = test system: Bacteroides fragilis; experiment: Antimicrobial activity against Bacteroides fragilis GAI 10150 by agar dilution method in presence of 5% laked sheep blood
[30] = test system: Bifidobacterium breve; experiment: Antimicrobial activity against Bifidobacterium breve ATCC 15700 by agar dilution method in presence of 5% laked sheep blood
[31] = test system: Finegoldia magna; experiment: Antimicrobial activity against Finegoldia magna by agar dilution method in presence of 5% laked sheep blood
[32] = test system: Bacteroides fragilis; experiment: Antimicrobial activity against Bacteroides fragilis GAI 7955 by agar dilution method in presence of 5% laked sheep blood
[33] = test system: Fusobacterium nucleatum; experiment: Antimicrobial activity against Fusobacterium nucleatum ATCC 25586 by agar dilution method in presence of 5% laked sheep blood
[34] = test system: Bacteroides thetaiotaomicron; experiment: Antimicrobial activity against Bacteroides thetaiotaomicron by agar dilution method in presence of 5% laked sheep blood
[35] = test system: Odoribacter splanchnicus; experiment: Antimicrobial activity against Odoribacter splanchnicus by agar dilution method in presence of 5% laked sheep blood
[36] = test system: Porphyromonas uenonis; experiment: Antimicrobial activity against Porphyromonas uenonis by agar dilution method in presence of 5% laked sheep blood
[37] = test system: Veillonella parvula; experiment: Antimicrobial activity against Veillonella parvula ATCC 10790 by agar dilution method in presence of 5% laked sheep blood
[38] = test system: Clostridioides difficile; experiment: Antimicrobial activity against Clostridium difficile by agar dilution method in presence of 5% laked sheep blood
[39] = test system: Bacteroides uniformis; experiment: Antimicrobial activity against Bacteroides uniformis ATCC 8492 by agar dilution method in presence of 5% laked sheep blood
[40] = Antimicrobial activity against Veillonella dispar ATCC 17748 by agar dilution method in presence of 5% laked sheep blood
[41] = test system: Prevotella sp.; experiment: Antimicrobial activity against Prevotella sp. by agar dilution method in presence of 5% laked sheep blood
[42] = test system: Cutibacterium acnes; experiment: Antimicrobial activity against Propionibacterium acnes ATCC 11828 by agar dilution method in presence of 5% laked sheep blood
[43] = test system: Lactobacillus brevis; experiment: Antimicrobial activity against Lactobacillus brevis subsp. brevis JCM 1059 by agar dilution method in presence of 5% laked sheep blood; conditions: Levilactobacillus brevis
[44] = test system: Porphyromonas asaccharolytica; experiment: Antimicrobial activity against Porphyromonas asaccharolyticus by agar dilution method in presence of 5% laked sheep blood

C[C@@H](O)[C@H]1C(=O)N2C(C(=O)O)=C(S[C@@H]3CN[C@H](C(=O)N(C)C)C3)[C@H](C)[C@H]12 [MEROPENEM]
MIC50 [1]: 0.06 µg/mL | MIC90 [1]: 0.125 µg/mL | MIC50 [2]: 0.25 µg/mL | MIC90 [2]: 4 µg/mL | MIC [3]: 0.06 µg/mL | MIC [4]: 0.5 µg/mL | MIC [5]: 0.25 µg/mL | MIC [6]: 1 µg/mL | MIC [7]: 0.25 µg/mL | MIC [8]: 0.25 µg/mL | MIC50 [9]: 0.03 µg/mL | MIC90 [9]: 0.125 µg/mL | MIC50 [10]: 0.25 µg/mL | MIC90 [10]: 2 µg/mL | MIC50 [11]: 0.25 µg/mL | MIC90 [11]: 4 µg/mL | MIC [12]: 2 µg/mL | MIC50 [13]: 0.03 µg/mL | MIC90 [13]: 0.125 µg/mL | MIC [14]: > 128 µg/mL | MIC50 [15]: 0.03 µg/mL | MIC90 [15]: 0.125 µg/mL | MIC [16]: 0.03 µg/mL | MIC50 [17]: 0.03 µg/mL | MIC90 [17]: 0.125 µg/mL | MIC [18]: 0.125 µg/mL | MIC [19]: 0.03 µg/mL | MIC50 [20]: 0.03 µg/mL | MIC90 [20]: 0.125 µg/mL | MIC50 [21]: 0.06 µg/mL | MIC90 [21]: 0.125 µg/mL | MIC50 [22]: 0.06 µg/mL | MIC90 [22]: 0.125 µg/mL | MIC [23]: 0.25 µg/mL | MIC50 [24]: 0.25 µg/mL | MIC90 [24]: 4 µg/mL | MIC [25]: ≤ 0.015 µg/mL | MIC [26]: 0.125 µg/mL | MIC50 [27]: ≤ 0.015 µg/mL | MIC90 [27]: 0.03 µg/mL | MIC50 [28]: 0.5 µg/mL | MIC90 [28]: 1 µg/mL | MIC [29]: 2 µg/mL | MIC [30]: 1 µg/mL | MIC50 [31]: 0.125 µg/mL | MIC90 [31]: 0.125 µg/mL | MIC [32]: 2 µg/mL | MIC [33]: 8 µg/mL | MIC50 [34]: 0.5 µg/mL | MIC90 [34]: 2 µg/mL | MIC50 [35]: 0.25 µg/mL | MIC90 [35]: 4 µg/mL | MIC50 [36]: ≤ 0.015 µg/mL | MIC90 [36]: 0.03 µg/mL | MIC [37]: 0.03 µg/mL | MIC50 [38]: 2 µg/mL | MIC90 [38]: 4 µg/mL | MIC [39]: 0.125 µg/mL | MIC [40]: 0.03 µg/mL | MIC50 [41]: 0.125 µg/mL | MIC90 [41]: 0.25 µg/mL | MIC [42]: 2 µg/mL | MIC [43]: 0.5 µg/mL | MIC50 [44]: ≤ 0.015 µg/mL | MIC90 [44]: 0.03 µg/mL

C[C@@H](O)[C@H]1C(=O)N2C(C(=O)O)=C(S[C@H]3C[C@@H](C(=O)N4CC[C@H](NC(=O)CNC(=N)N)C4)N(C)C3)[C@H](C)[C@H]12 [TOMOPENEM]
MIC50 [1]: 0.125 µg/mL | MIC90 [1]: 0.125 µg/mL | MIC50 [2]: 0.5 µg/mL | MIC90 [2]: 4 µg/mL | MIC [3]: 0.03 µg/mL | MIC [4]: 0.5 µg/mL | MIC [5]: 0.03 µg/mL | MIC [6]: 0.5 µg/mL | MIC [7]: 0.125 µg/mL | MIC [8]: 0.125 µg/mL | MIC50 [9]: ≤ 0.015 µg/mL | MIC90 [9]: 0.5 µg/mL | MIC50 [10]: 0.5 µg/mL | MIC90 [10]: 4 µg/mL | MIC50 [11]: 0.5 µg/mL | MIC90 [11]: 4 µg/mL | MIC [12]: 1 µg/mL | MIC50 [13]: ≤ 0.015 µg/mL | MIC90 [13]: 0.5 µg/mL | MIC [14]: > 128 µg/mL | MIC50 [15]: ≤ 0.015 µg/mL | MIC90 [15]: 0.5 µg/mL | MIC [16]: 0.125 µg/mL | MIC50 [17]: ≤ 0.015 µg/mL | MIC90 [17]: 0.5 µg/mL | MIC [18]: 0.06 µg/mL | MIC [19]: 0.06 µg/mL | MIC50 [20]: ≤ 0.015 µg/mL | MIC90 [20]: 0.5 µg/mL | MIC50 [21]: 0.125 µg/mL | MIC90 [21]: 0.5 µg/mL | MIC50 [22]: 0.06 µg/mL | MIC90 [22]: 0.125 µg/mL | MIC [23]: 0.25 µg/mL | MIC50 [24]: 0.5 µg/mL | MIC90 [24]: 4 µg/mL | MIC [25]: 0.03 µg/mL | MIC [26]: 0.125 µg/mL | MIC50 [27]: ≤ 0.015 µg/mL | MIC90 [27]: 0.06 µg/mL | MIC50 [28]: 0.5 µg/mL | MIC90 [28]: 0.5 µg/mL | MIC [29]: 4 µg/mL | MIC [30]: 1 µg/mL | MIC50 [31]: 0.06 µg/mL | MIC90 [31]: 0.125 µg/mL | MIC [32]: 4 µg/mL | MIC [33]: 2 µg/mL | MIC50 [34]: 0.5 µg/mL | MIC90 [34]: 2 µg/mL | MIC50 [35]: 0.5 µg/mL | MIC90 [35]: 4 µg/mL | MIC50 [36]: 0.03 µg/mL | MIC90 [36]: 0.06 µg/mL | MIC [37]: 0.03 µg/mL | MIC50 [38]: 1 µg/mL | MIC90 [38]: 2 µg/mL | MIC [39]: 0.25 µg/mL | MIC [40]: 0.03 µg/mL | MIC50 [41]: 0.125 µg/mL | MIC90 [41]: 0.5 µg/mL | MIC [42]: 1 µg/mL | MIC [43]: 0.25 µg/mL | MIC50 [44]: 0.03 µg/mL | MIC90 [44]: 0.06 µg/mL

CCC[C@@H]1C[C@@H](C(=O)N[C@@H]([C@H]2O[C@H](SC)[C@H](O)[C@@H](O)[C@H]2O)[C@H](C)Cl)N(C)C1 [CLINDAMYCIN]
MIC [3]: ≤ 0.03 µg/mL | MIC [4]: 0.25 µg/mL | MIC [5]: 0.25 µg/mL | MIC [6]: 0.25 µg/mL | MIC [7]: 0.125 µg/mL | MIC [8]: 0.25 µg/mL | MIC [12]: 2 µg/mL | MIC [14]: 2 µg/mL | MIC [16]: 0.5 µg/mL | MIC [18]: 0.125 µg/mL | MIC [19]: ≤ 0.03 µg/mL | MIC [23]: 1 µg/mL | MIC [25]: 0.25 µg/mL | MIC [29]: 0.5 µg/mL | MIC [30]: ≤ 0.03 µg/mL | MIC [32]: 1 µg/mL | MIC [37]: ≤ 0.03 µg/mL | MIC [39]: ≤ 0.03 µg/mL | MIC [40]: ≤ 0.03 µg/mL | MIC [42]: 0.125 µg/mL | MIC [43]: ≤ 0.03 µg/mL

Source: ChEMBL document CHEMBL1275576, “In vitro activity of tomopenem (CS-023/RO4908463) against anaerobic bacteria” (Antimicrob Agents Chemother, 2009)
